Results: ChEMBL document CHEMBL4808169, “Discovery of Potent and Fast-Acting Antimalarial Bis-1,2,4-triazines” (J Med Chem, 2021)
The source made the active and inactive calls. The rule behind the calls is not given here.

What was measured:
[1] = tested on: Plasmodium berghei; experiment: Antiplasmodial activity against Plasmodium berghei ANKA infected in po dosed Swiss mouse administered at 2 hrs post infection and measured on day 4 by Peter's 4-day test; type: functional
[2] = Tmax in Swiss mouse at 2.8 mg/kg, po measured up to 24 hrs by LC-MS analysis; type: ADME, organism-based; conditions: in vivo
[3] = Drug metabolism in rat hepatocytes assessed as oxygenated metabolite M+16(1) formation by LC-MS/MS(CID) analysis; type: ADME, cell-based, Hepatocyte
[4] = tested on: Plasmodium; experiment: Antimalarial activity against Plasmodium assessed as transmission blocking potential by measuring reduction in male gamete formation by dual gamete formation assay; type: functional, organism-based
[5] = biological target: Cytochrome P450 2D6 (Homo sapiens, UniProt P10635); experiment: Inhibition of CYP2D6 in human liver microsomes assessed as reduction in […] activity by . high-pressure liquid chromatography-tandem mass spectrometry; type: ADME
[6] = Drug metabolism in mouse hepatocytes assessed as oxygenated metabolite N-methyl-2-(3'-propoxy-5,5'-bi(1,2,4-triazin)-3-yloxy)ethanamine oxide formation by LC-MS/MS(CID) analysis; type: ADME, cell-based, Hepatocyte
[7] = Drug metabolism in rat hepatocytes assessed as glucuronides/sulfates metabolite formation by LC-MS/MS(CID) analysis; type: ADME, cell-based, Hepatocyte
[8] = Metabolic stability of compound in Sprague-Dawley rat blood assessed as parent compound loss measured over 4 hrs by LC-MS analysis; type: ADME, tissue-based; conditions: whole blood, read-out: Drug degradation
[9] = Drug metabolism in rat liver microsomes assessed as N-methyl-2-(3'-propoxy-5,5'-bi(1,2,4-triazin)-3-yloxy)ethanamine formation by LC-MS/MS(CID) analysis; type: ADME, Microsome
[10] = Drug metabolism in rat liver microsomes assessed as formation of cleavage product M-69 in presence of NADPH by LC-MS/MS(CID) analysis; type: ADME, Microsome
[11] = Drug metabolism in Sprague-Dawley rat urine assessed as oxygenated metabolite N-methyl-2-(3'-propoxy-5,5'-bi(1,2,4-triazin)-3-yloxy)ethanamine oxide formation at 3 mg/kg, iv by high-resolution mass spectrometry; type: ADME, organism-based; conditions: in vivo
[12] = Drug metabolism in rat hepatocytes assessed as oxygenated metabolite M+16(2) formation by LC-MS/MS(CID) analysis; type: ADME, cell-based, Hepatocyte
[13] = Oral bioavailability in Swiss mouse at 27 mg/kg measured up to 24 hrs; type: ADME, organism-based; conditions: in vivo
[14] = tested on: HEK293; experiment: Cytotoxicity against HEK293 cells incubated for 24 hrs by MTT assay; type: cell-based; conditions: Homo sapiens, HEK293, 24 h
[15] = Drug metabolism in Sprague-Dawley rat feces assessed as oxygenated metabolite M+16(2) formation at 10 mg/kg, po by high-resolution mass spectrometry; type: ADME, organism-based; conditions: in vivo
[16] = Drug metabolism in rat liver microsomes assessed as formation of cleavage product M-69 by LC-MS/MS(CID) analysis; type: ADME, Microsome
[17] = Kinetic solubility of compound at pH 2 by nephelometry; type: physicochemical; conditions: buffer, read-out: Kinetic_solubility
[18] = Drug metabolism in human hepatocytes assessed as glucuronides/sulfates metabolite formation by LC-MS/MS(CID) analysis; type: ADME, cell-based, Hepatocyte
[19] = Oral bioavailability in Swiss mouse at 2.8 mg/kg measured up to 24 hrs; type: ADME, organism-based; conditions: in vivo
[20] = Half life in human liver microsomes in presence of NADPH by UPLC-MS analysis; type: ADME, Microsome
[21] = Drug metabolism in rat liver microsomes assessed as oxygenated metabolite N-methyl-2-(3'-propoxy-5,5'-bi(1,2,4-triazin)-3-yloxy)ethanamine oxide formation by LC-MS/MS(CID) analysis; type: ADME, Microsome
[22] = Drug metabolism in Sprague-Dawley rat urine assessed as N-methyl-2-(3'-propoxy-5,5'-bi(1,2,4-triazin)-3-yloxy)ethanamine formation at 10 mg/kg, po by high-resolution mass spectrometry; type: ADME, organism-based; conditions: in vivo
[23] = Drug metabolism in Sprague-Dawley rat urine assessed as M-32 metabolite formation at 3 mg/kg, iv by high-resolution mass spectrometry; type: ADME, organism-based; conditions: in vivo
[24] = Drug metabolism in mouse liver microsomes assessed as formation of cleavage product M-69 by LC-MS/MS(CID) analysis; type: ADME, Microsome
[25] = tested on: Plasmodium falciparum; experiment: Bactericidal activity against Plasmodium falciparum 3D7A at 10 times IC50; type: functional, organism-based
[26] = Drug metabolism in mouse liver microsomes assessed as 3'-propoxy-5,5'-bi(1,2,4-triazin)-3-ol formation by LC-MS/MS(CID) analysis; type: ADME, Microsome
[27] = Drug metabolism in Sprague-Dawley rat urine assessed as M-32 metabolite formation at 10 mg/kg, po by high-resolution mass spectrometry; type: ADME, organism-based; conditions: in vivo
[28] = Drug metabolism in human hepatocytes assessed as oxygenated metabolite M+16(2) formation by LC-MS/MS(CID) analysis; type: ADME, cell-based, Hepatocyte
[29] = AUC(0 to infinity) in Sprague-Dawley rat plasma at 3 mg/kg, iv measured up to 24 hrs by LC-MS analysis; type: ADME, organism-based; design: route intravenous, dose 3 mg/kg, time <=24
[30] = Drug metabolism in Sprague-Dawley rat urine assessed as N-methyl-2-(3'-propoxy-5,5'-bi(1,2,4-triazin)-3-yloxy)ethanamine formation at 3 mg/kg, iv by high-resolution mass spectrometry; type: ADME, organism-based; conditions: in vivo
[31] = tested on: Plasmodium falciparum; experiment: microbe, parasite or virus in culture; conditions: 3D7, 72 h
Description: Antimalarial activity against Plasmodium falciparum 3D7 infected in human red blood cells after 72 hrs by DAPI-staining based assay

[32] = Apparent half life in Sprague-Dawley rat at 3 mg/kg administered as iv infusion for 10 mins measured up to 24 hrs by LC-MS analysis; type: ADME, organism-based; conditions: in vivo
[33] = Drug metabolism in Sprague-Dawley rat urine assessed as oxygenated metabolite M+16(2) formation at 3 mg/kg, iv by high-resolution mass spectrometry; type: ADME, organism-based; conditions: in vivo
[34] = Drug metabolism in mouse hepatocytes assessed as oxygenated metabolite M+16(2) formation by LC-MS/MS(CID) analysis; type: ADME, cell-based, Hepatocyte
[35] = Intrinsic clearance in human hepatocytes assessed per million cells by UPLC-MS analysis; type: ADME, cell-based, Hepatocyte; conditions: read-out: CLH
[36] = Ratio of drug level in blood to plasma in Sprague-Dawley rat at 3 mg/kg, iv administered as infusion for 10 mins measured after 1 hr by LC-MS analysis; type: ADME, organism-based; conditions: whole blood and plasma
[37] = biological target: Cytochrome P450 3A4 (Homo sapiens, UniProt P08684); experiment: Inhibition of CYP3A4 in human liver microsomes assessed as reduction in testosterone 6beta-hydroxylation activity by high-pressure liquid chromatography-tandem mass spectrometry; type: ADME
[38] = Drug concentration in blood of NOD-SCID 1L2Rgamma mouse infected with Plasmodium falciparum 3D70087/N9 at 50 mg/kg, po measured at 24 hrs by LC-MS/MS analysis; type: ADME, organism-based; conditions: in vivo
[39] = Drug metabolism in Sprague-Dawley rat feces assessed as N-methyl-2-(3'-propoxy-5,5'-bi(1,2,4-triazin)-3-yloxy)ethanamine formation at 3 mg/kg, iv by high-resolution mass spectrometry; type: ADME, organism-based; conditions: in vivo
[40] = Apparent permeability across basolateral side to apical side in human Caco2 cells measured over 120 mins by LC-MS analysis; type: ADME, cell-based; conditions: Caco-2
[41] = Drug metabolism in mouse hepatocytes assessed as 3'-propoxy-5,5'-bi(1,2,4-triazin)-3-ol formation by LC-MS/MS(CID) analysis; type: ADME, cell-based, Hepatocyte
[42] = tested on: Plasmodium falciparum; experiment: Antimalarial activity against Plasmodium falciparum 3D7 infected in human red blood cells at 40 uM after 72 hrs by DAPI-staining based assay relative to control; type: functional

Chain of Cytochrome P450 2D6 (P10635 whole entry): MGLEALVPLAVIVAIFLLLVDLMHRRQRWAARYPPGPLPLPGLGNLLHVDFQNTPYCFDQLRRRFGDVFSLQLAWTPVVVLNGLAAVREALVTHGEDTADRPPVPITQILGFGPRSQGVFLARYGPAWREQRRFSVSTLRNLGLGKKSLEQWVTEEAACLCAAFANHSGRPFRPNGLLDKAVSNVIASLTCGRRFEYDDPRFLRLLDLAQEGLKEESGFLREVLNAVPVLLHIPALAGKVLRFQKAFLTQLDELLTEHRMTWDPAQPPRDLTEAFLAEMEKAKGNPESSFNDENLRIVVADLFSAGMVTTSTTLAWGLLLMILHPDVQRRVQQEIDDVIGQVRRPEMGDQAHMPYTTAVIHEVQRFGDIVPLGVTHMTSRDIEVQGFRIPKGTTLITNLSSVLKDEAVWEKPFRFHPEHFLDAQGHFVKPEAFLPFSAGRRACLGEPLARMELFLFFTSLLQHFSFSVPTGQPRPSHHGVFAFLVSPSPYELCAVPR
Chain of Cytochrome P450 3A4 (P08684 whole entry): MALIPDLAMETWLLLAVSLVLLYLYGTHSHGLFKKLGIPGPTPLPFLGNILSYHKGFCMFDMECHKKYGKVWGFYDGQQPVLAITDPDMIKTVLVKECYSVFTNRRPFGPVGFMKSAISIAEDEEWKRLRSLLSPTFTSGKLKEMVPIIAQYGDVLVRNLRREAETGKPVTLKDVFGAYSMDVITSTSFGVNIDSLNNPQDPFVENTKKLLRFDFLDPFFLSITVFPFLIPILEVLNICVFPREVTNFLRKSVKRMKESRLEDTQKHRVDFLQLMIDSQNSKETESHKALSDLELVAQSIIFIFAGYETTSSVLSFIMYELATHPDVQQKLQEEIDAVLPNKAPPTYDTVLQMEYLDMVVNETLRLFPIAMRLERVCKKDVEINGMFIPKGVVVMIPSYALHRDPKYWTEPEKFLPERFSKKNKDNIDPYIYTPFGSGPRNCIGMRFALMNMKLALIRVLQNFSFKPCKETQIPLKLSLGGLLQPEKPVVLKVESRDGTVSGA

Tmax [2]: 30 min
Drug metabolism [3]: Metabolite_Detected
EC50 [4]: 1.2 µM
IC50 [5]: > 20 µM
Drug metabolism [6]: Metabolite_Detected
Drug metabolism [7]: Metabolite_Notdetected
metabolised at 4 h [8]: 15%
Drug metabolism [9]: Metabolite_Detected
Drug metabolism [10]: Metabolite_Detected
Drug metabolism [11]: Metabolite_Detected
Drug metabolism [12]: Metabolite_Detected
bioavailability [13]: 12%
Drug metabolism [15]: Metabolite_Detected
Drug metabolism [16]: Metabolite_Detected
solubility kinetic [17]: > 100 µg/mL
Drug metabolism [18]: Metabolite_Notdetected
bioavailability [19]: 10%
half-life [20]: 229 min
Drug metabolism [21]: Metabolite_Detected
Drug metabolism [22]: Metabolite_Detected
Drug metabolism [23]: Metabolite_Detected
Drug metabolism [24]: Metabolite_Detected
Drug metabolism [26]: Metabolite_Detected
Drug metabolism [27]: Metabolite_Detected
Drug metabolism [28]: Metabolite_Detected
AUC(0-inf) [29]: 0.658 µM·h
Drug metabolism [30]: Metabolite_Detected
IC50 [31]: 0.031 µM
half-life [32]: 23.4 min
Drug metabolism [33]: Metabolite_Detected
Drug metabolism [34]: Metabolite_Detected
hepatocyte CLint [35]: 3.6 µL/min/1e6 cells
blood plasma ratio at 10 min [36]: 1.3
IC50 [37]: > 20 µM
Drug uptake [38]: < 1e-05 mg/mL
Drug metabolism [39]: Metabolite_Detected
Papp B→A at 2 h [40]: 46 ×10⁻⁶ cm/s
Drug metabolism [41]: Metabolite_Detected
SMILES: CCCOc1nncc(-c2cnnc(OCCN(C)C)n2)n1
ED50 [1]: 1.85 mg/kg/day
ED90 [1]: 4.1 mg/kg/day
EC50 [14]: 36 µM
Activity [25]: Active
Activity [42]: 100%
